What follows are compounds tested against T1, CFTR (Homo sapiens, UniProt P13569, DEL508-508) (assay: HBE Assay: Ussing chamber assay of CFTR-mediated short-circuit currents in F508del/MF-HBE cells with 1 μM Ivacaftor). Details: range of concentrations with 1 μM Ivacaftor, 18-24 hours, 20% human serum.
T1 construct: endogenous in cells; host or cells: primary human bronchial epithelial cells, F508del/MF genotype
Assay type: cell-based
Outline: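 F508del/MF-HBE cells at air-liquid interface >14 days were incubated 18-24 h at 37° C with corrector (concentration range or fixed 10 μM) plus 1 μM Ivacaftor in 20% human serum, compounds kept throughout. Ussing chamber, Vhold=0 mV, 37° C, apical amiloride 30 μM; ISC (μA/cm^2) from peak 20 μM forskolin response to steady state after CFTR inhibitor cocktail.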

T1 sequence (P13569 with tags, fused parts or gaps DEL508-508): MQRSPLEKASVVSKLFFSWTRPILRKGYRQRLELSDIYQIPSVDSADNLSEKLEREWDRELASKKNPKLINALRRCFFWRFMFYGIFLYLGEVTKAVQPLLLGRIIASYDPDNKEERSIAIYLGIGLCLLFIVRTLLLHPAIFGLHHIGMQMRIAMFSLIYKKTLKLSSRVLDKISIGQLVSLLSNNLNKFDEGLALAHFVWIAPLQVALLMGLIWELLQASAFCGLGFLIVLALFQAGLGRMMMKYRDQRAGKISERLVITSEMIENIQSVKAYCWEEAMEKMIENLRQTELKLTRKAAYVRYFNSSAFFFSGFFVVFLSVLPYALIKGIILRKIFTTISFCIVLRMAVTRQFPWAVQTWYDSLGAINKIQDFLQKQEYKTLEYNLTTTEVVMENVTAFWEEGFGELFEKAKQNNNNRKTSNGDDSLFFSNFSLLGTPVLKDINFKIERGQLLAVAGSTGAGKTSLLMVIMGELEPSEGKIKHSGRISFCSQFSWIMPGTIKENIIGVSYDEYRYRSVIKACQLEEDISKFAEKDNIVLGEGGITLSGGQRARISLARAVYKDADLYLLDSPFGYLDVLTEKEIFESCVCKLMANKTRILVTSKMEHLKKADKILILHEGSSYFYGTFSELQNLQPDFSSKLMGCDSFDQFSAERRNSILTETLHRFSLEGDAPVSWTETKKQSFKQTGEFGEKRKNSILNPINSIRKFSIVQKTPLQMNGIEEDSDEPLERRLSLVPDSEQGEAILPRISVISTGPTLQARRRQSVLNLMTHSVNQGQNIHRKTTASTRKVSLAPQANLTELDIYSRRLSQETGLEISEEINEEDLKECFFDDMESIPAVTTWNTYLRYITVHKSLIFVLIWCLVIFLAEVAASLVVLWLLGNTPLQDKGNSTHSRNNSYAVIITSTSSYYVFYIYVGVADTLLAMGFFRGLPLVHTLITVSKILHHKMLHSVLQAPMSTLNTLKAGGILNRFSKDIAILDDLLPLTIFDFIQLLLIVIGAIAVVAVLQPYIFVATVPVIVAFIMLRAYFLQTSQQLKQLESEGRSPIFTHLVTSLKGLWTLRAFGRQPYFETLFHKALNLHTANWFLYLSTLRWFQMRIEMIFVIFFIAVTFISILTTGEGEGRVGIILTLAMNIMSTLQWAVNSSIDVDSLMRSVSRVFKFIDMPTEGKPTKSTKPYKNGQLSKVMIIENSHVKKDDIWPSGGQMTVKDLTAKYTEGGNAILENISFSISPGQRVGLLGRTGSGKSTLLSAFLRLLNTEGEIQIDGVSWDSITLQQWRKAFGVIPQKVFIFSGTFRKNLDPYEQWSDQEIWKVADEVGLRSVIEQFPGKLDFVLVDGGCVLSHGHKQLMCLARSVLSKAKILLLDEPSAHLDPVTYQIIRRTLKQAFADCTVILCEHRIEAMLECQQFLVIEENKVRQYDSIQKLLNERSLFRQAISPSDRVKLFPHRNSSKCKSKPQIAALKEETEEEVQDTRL

SMILES | EC50 [nM]
CCOc1cnc(CN2C(=O)c3cccc(c3)S(=O)(=O)Nc3nc(c(C)c(-c4c(C)cccc4CC(C)C)n3)OC[C@H]2CC(C)(C)C)nc1 (atropisomer, axis not shown) [Compound 339] | < 1000
Cc1cccc(C)c1-c1nc2nc(c1C)OC[C@@H](CC1CC1)N(Cc1ncc(OC(C)C)cn1)C(=O)c1cccc(c1)S(=O)(=O)N2 [Compound 345] | < 1000

Same assay, conditions: single fixed concentration of 10 μM, with 1 μM Ivacaftor, 20% human serum

SMILES | HBE Activity at 10 μM
Cc1cccc(OC(C)C)c1-c1nc2nc(c1C)OC[C@@H](CC(C)(C)C)N(Cc1cnc(N(C)CC(C)(C)C)cn1)C(=O)c1cccc(c1)S(=O)(=O)N2 [Compound 222] | +++ (+++ is >600%)
Cc1cccc(COC(C)C)c1-c1nc2nc(c1C)OC[C@@H](CC(C)(C)C)N(Cc1nccc(N(C)C(C)C)n1)C(=O)c1cccc(c1)S(=O)(=O)N2 (atropisomer, axis not shown) [Compound 229] | +++ (+++ is >600%)
Cc1cccc(CC2CCOCC2)c1-c1nc2nc(c1C)OC[C@@H](CC(C)(C)C)N(Cc1ncc(N3CCOCC3)cn1)C(=O)c1cccc(c1)S(=O)(=O)N2 (atropisomer, axis not shown; (M)) [Compound 217, (5M,11R)-11-(2,2-dimethylpropyl)-7-methyl-6-{2-methyl-6-[(oxan-4-yl)methyl]phenyl}-12-{[5-(morpholin-4-yl)pyrimidin-2-yl]methyl}-9-oxa-2λ^6-thia-3,5,12,19-tetraazatricyclo[12.3.1.14,8]nonadeca-1(17),4(19),5,7,14(18),15-hexaene-2,2,13-trione] | ++ (++ is 30-60%)
Cc1cccc(CC2CCCCC2)c1-c1nc2nc(c1C(F)(F)F)OC[C@@H](CC(C)(C)C)N(Cc1ncc(N3CCOCC3)cn1)C(=O)c1cccc(c1)S(=O)(=O)N2 (atropisomer, axis not shown) [Compound 245] | ++ (++ is 30-60%)
Cc1cccc(CC2CCCC2)c1-c1nc2nc(c1C)OC[C@@H](CC(C)(C)C)N(Cc1nccc(N(C)C(C)C)n1)C(=O)c1cccc(c1)S(=O)(=O)N2 (atropisomer, axis not shown) [Compound 265] | +++ (+++ is >600%)

Second part, the compound after the results:

HBE Activity at 10 μM | SMILES
+++ (+++ is >600%) | Cc1cccc(C(C)C)c1-c1nc2nc(c1C)OC[C@@H](CC(C)(C)C)N(Cc1cnc(C3CCOCC3)cn1)C(=O)c1cccc(c1)S(=O)(=O)N2 (atropisomer, axis not shown) [Compound 318]
+++ (+++ is >600%) | Cc1cccc(CC2CCCC2)c1-c1nc2nc(c1C)OC[C@@H](CC(C)(C)C)N(Cc1ncc(N3CCC(C)(C)C3)cn1)C(=O)c1cccc(c1)S(=O)(=O)N2 (atropisomer, axis not shown) [Compound 270]

Same assay, conditions: with 1 μM Ivacaftor, 18-24 hours, 20% human serum

SMILES | EC50 [nM] | HBE Max Activity
Cc1cccc(C)c1-c1nc2nc(c1C)OC[C@@H](C(C)C)N(Cc1cncc(N(C)CC(C)(C)C)n1)C(=O)c1cccc(c1)S(=O)(=O)N2 [Compound 195] | < 1000 | +++ (+++ is >600%)
Cc1c2nc(nc1-c1ccccc1C(C)C)NS(=O)(=O)c1cccc(c1)C(=O)N(Cc1ccc(N3CCOCC3)cn1)[C@H](CC(C)(C)C)CO2 [Compound 182] | < 1000 | +++ (+++ is >600%)
Cc1cccc(C2CC2)c1-c1nc2nc(c1C)OC[C@@H](CC(C)(C)C)N(Cc1ncc(N3CCOCC3)cn1)C(=O)c1cccc(c1)S(=O)(=O)N2 (atropisomer, axis not shown; (P)) [Compound 216, (5P,11R)-6-(2-Cyclopropyl-6-methyl-phenyl)-11-(2,2-dimethylpropyl)-7-methyl-12-[(5-morpholinopyrimidin-2-yl)methyl]-2,2-dioxo-9-oxa-2λ^6-thia-3,5,12,19-tetrazatricyclo[12.3.1.14,8]nonadeca-1(18),4(19),5,7,14,16-hexaen-13-one] | < 1000 | +++ (+++ is >600%)
Cc1cccc(C)c1-c1nc2nc(c1C)OC[C@@H](CC(C)C)N(Cc1ncc(N3CCC(C)(C)C3)cn1)C(=O)c1cccc(c1)S(=O)(=O)N2 [Compound 199] | < 1000 | +++ (+++ is >600%)
Cc1cccc(CC2CCCCC2)c1-c1nc2nc(c1C)OC[C@@H](CC(C)(C)C)N(Cc1ccc(C3CCOCC3)cn1)C(=O)c1cccc(c1)S(=O)(=O)N2 [Compound 257] | < 1000 | +++ (+++ is >600%)
Cc1cccc(CC(C)C)c1-c1nc2nc(c1C(F)(F)F)OC[C@@H](CC(C)(C)C)N(Cc1ncc(N3CCOCC3)cn1)C(=O)c1cccc(c1)S(=O)(=O)N2 (single isomer, unassigned) [Compound 212] | < 1000 | +++ (+++ is >600%)
Cc1cccc(CC2CCCCC2)c1-c1nc2nc(c1C)OC[C@@H](CC(C)(C)C)N(Cc1nccc(N(C)C(C)C)n1)C(=O)c1cccc(c1)S(=O)(=O)N2 (atropisomer, axis not shown) [Compound 262] | < 1000 | +++ (+++ is >600%)
Cc1cccc(CC2CCCCC2)c1-c1nc2nc(c1C)OC[C@@H](CC(C)(C)C)N(Cc1ccc(N3CCOCC3)cn1)C(=O)c1cccc(c1)S(=O)(=O)N2 (single isomer, unassigned) [Compound 207] | < 1000 | +++ (+++ is >600%)

Other lines, results leading:

EC50 [nM] | HBE Max Activity | SMILES
< 1000 | +++ (+++ is >600%) | Cc1cccc(CC2CCCCC2)c1-c1nc2nc(c1C)OC[C@@H](CC(C)(C)C)N(Cc1ccc(N3CCCCC3)cn1)C(=O)c1cccc(c1)S(=O)(=O)N2 (atropisomer, axis not shown) [Compound 308]
< 1000 | +++ (+++ is >600%) | Cc1cccc(CC2CCCCC2)c1-c1nc2nc(c1C)OC[C@@H](CC(C)(C)C)N(Cc1ncccc1N1CCOCC1)C(=O)c1cccc(c1)S(=O)(=O)N2 (atropisomer, axis not shown) [Compound 310]
< 1000 | +++ (+++ is >600%) | Cc1cccc(C(C)C)c1-c1nc2nc(c1C)OC[C@@H](CC(C)(C)C)N(Cc1ccc(N3CCOCC3)cn1)C(=O)c1cccc(c1)S(=O)(=O)N2 (atropisomer, axis not shown) [Compound 300]
< 1000 | +++ (+++ is >600%) | Cc1cccc(CC2CCCC2)c1-c1nc2nc(c1C)OC[C@@H](CC(C)(C)C)N(Cc1ccc(OC(C)C)cn1)C(=O)c1cccc(c1)S(=O)(=O)N2 (atropisomer, axis not shown) [Compound 267]
< 1000 | +++ (+++ is >600%) | Cc1cccc(CC(C)C)c1-c1nc2nc(c1C)OC[C@@H](CC(C)(C)C)N(Cc1ncc(N3CCOCC3)cn1)C(=O)c1cccc(c1)S(=O)(=O)N2 (atropisomer, axis not shown) [Compound 296]
< 1000 | +++ (+++ is >600%) | Cc1cccc(CC2CCCCC2)c1-c1nc2nc(c1C)OC[C@@H](CC(C)(C)C)N(Cc1ncc(N3CCOCC3)cn1)C(=O)c1cccc(c1)S(=O)(=O)N2 (atropisomer, axis not shown) [Compound 306]

Same assay, conditions: with 1 μM Ivacaftor, 18-24 hours, 20% human serum, compared to known Vertex corrector with 18 μM Tezacaftor and 1 μM Ivacaftor, read-out: HBE Max activity (%)

SMILES | Emax [%]
CCOc1cnc(CN2C(=O)c3cccc(c3)S(=O)(=O)Nc3nc(c(C)c(-c4c(C)cccc4CC(C)C)n3)OC[C@H]2CC(C)(C)C)nc1 (atropisomer, axis not shown) [Compound 339] | > 60
Cc1cccc(C)c1-c1nc2nc(c1C)OC[C@@H](CC1CC1)N(Cc1ncc(OC(C)C)cn1)C(=O)c1cccc(c1)S(=O)(=O)N2 [Compound 345] | > 60

From patent US20230374038A1, “MODULATORS OF CYSTIC FIBROSIS TRANSMEMBRANE CONDUCTANCE REGULATOR” (VERTEX PHARMACEUTICALS INCORPORATED, priority 2020, published 2023)
